Test results as given in patent US8471041B2 (priority 2010, dated 2013).
≈ marks a conversion by molar mass, not a printed value.

Assays:
[1] = physchem; conditions: organic solvent or mixture
[2] = physchem; conditions: water

Compound: O=C(CBr)N1CC([N+](=O)[O-])([N+](=O)[O-])C1 [ABDNAZ, N-(bromoacetyl)-3,3-dinitroazetidine]
- solubility [1]: ~30 mg/mL (≈ 112 mM)
- solubility [2]: 0.3 to 1.3 mg/mL (≈ 1.12 to 4.85 mM)
